Key:
Assay in all cases: combination Emax (second highest fraction inhibited in the dose matrix, 72 h); higher = more inhibition; extreme values may be limits of the assay
[1] = system: 8305C (Thyroid Gland Carcinoma)
Procedure, shortened: (§1)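 Cell lines grown in DMEM/F12 or RPMI with 10% FBS were plated in 1536-well plates and held 24 hours at 37°C, 5% CO2 before 72 hours of exposure to two-drug dose matrices, with DMSO typically at 0.2%. CellTiter-Glo 2.0 luminescence gave viability, which was converted to inhibition. Vehicle wells were set to 0 and blank wells to 1. Combination Emax is the second-highest inhibition in the matrix, and Bliss excess is the observed combination effect minus the expected EA + EB − EA·EB, where EA and EB are the single-agent effects.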

[2] = system: CTB-1 (B-Cell Non-Hodgkin's Lymphoma)
Procedure, shortened: as §1

[3] = system: HDLM-2 (Hodgkin's Lymphoma)
Procedure, shortened: as §1

[4] = system: HO-1-u-1 (Oral Cavity Carcinoma)
Procedure, shortened: as §1

[5] = system: Hs-633T (Other Solid Carcinomas)
Procedure, shortened: as §1

[6] = system: K5 (Thyroid Gland Carcinoma)
Procedure, shortened: as §1

[7] = system: KARPAS-231 (B-Cell Non-Hodgkin's Lymphoma)
Procedure, shortened: as §1

[8] = system: LB771-HNC (Head and Neck Carcinoma)
Procedure, shortened: as §1

[9] = system: LU-139 (Small Cell Lung Carcinoma)
Procedure, shortened: as §1

[10] = system: LoVo (Colorectal Carcinoma)
Procedure, shortened: as §1

[11] = system: MHH-PREB-1 (B-Cell Non-Hodgkin's Lymphoma)
Procedure, shortened: as §1

Mewo (Melanoma) = system: Mewo (Melanoma)
Procedure, shortened: as §1

NCI-H2795 (Mesothelioma) = system: NCI-H2795 (Mesothelioma)
Procedure, shortened: as §1

[12] = system: NCI-H69 (Small Cell Lung Carcinoma)
Procedure, shortened: as §1

[13] = system: NCI-H747 (Colorectal Carcinoma)
Procedure, shortened: as §1

[14] = system: OVCAR-8 (Ovarian Carcinoma)
Procedure, shortened: as §1

[15] = system: RPMI-6666 (Non-Cancerous)
Procedure, shortened: as §1

[16] = system: RT-112 (Bladder Carcinoma)
Procedure, shortened: as §1

[17] = system: SU-DHL-6 (B-Cell Non-Hodgkin's Lymphoma)
Procedure, shortened: as §1

[18] = system: SW1271 (Small Cell Lung Carcinoma)
Procedure, shortened: as §1

| Compound | combination Emax [1] | combination Emax [2] | combination Emax [3] | combination Emax [4] | combination Emax [5] | combination Emax [6] | combination Emax [7] | combination Emax [8] | combination Emax [9] | combination Emax [10] | combination Emax [11] | combination Emax (Mewo (Melanoma)) | combination Emax (NCI-H2795 (Mesothelioma)) | combination Emax [12] | combination Emax [13] | combination Emax [14] | combination Emax [15] | combination Emax [16] | combination Emax [17] | combination Emax [18] |
| --- | --- | --- | --- | --- | --- | --- | --- | --- | --- | --- | --- | --- | --- | --- | --- | --- | --- | --- | --- | --- |
| CN(C)CCCOc1ccc(-c2ccc3ncc4c(c3c2)n(C2CCOCC2)c(=O)n4C)cn1 [AZD0156] + C=CCn1c(=O)c2cnc(Nc3ccc(N4CCN(C)CC4)cc3)nc2n1-c1cccc(C(C)(C)O)n1 [AZD1775] (first compound max 1 µM, partner max 1 µM) | 0.924 | 0.898 | 0.721 | 0.77 | 0.769 | 0.424 | 0.988 | 0.557 | 0.59 | 0.785 | 0.844 | 0.47 | 0.512 | 0.312 | 0.414 | 0.8 | 0.923 | 0.514 | 0.699 | 0.476 |
| CN(C)CCCOc1ccc(-c2ccc3ncc4c(c3c2)n(C2CCOCC2)c(=O)n4C)cn1 [AZD0156] + CCN(CCO)CCCOc1ccc2c(Nc3cc(CC(=O)Nc4cccc(F)c4)[nH]n3)ncnc2c1 [AZD2811] (first compound max 1 µM, 7x7, partner max 1 µM) | 0.29 | 0.501 | 0.178 | 0.209 | 0.373 | 0.244 | 0.563 | 0.142 | 0.279 | 0.435 | 0.154 | 0.153 | 0.291 | 0.673 | 0.167 | 0.26 | 0.551 | 0.205 | 0.478 | 0.201 |
| CN(C)CCCOc1ccc(-c2ccc3ncc4c(c3c2)n(C2CCOCC2)c(=O)n4C)cn1 [AZD0156] + C[C@@H]1COCCN1C2=NC(=NC(=C2)C3(CC3)[S@](=N)(=O)C)C4=C5C=CNC5=NC=C4 [AZD6738] (first compound max 1 µM, 7x7, partner max 10 µM) | 0.506 | 0.829 | 0.376 | 0.943 | 0.925 | 0.753 | 0.904 | 0.48 | 0.278 | 0.867 | 0.909 | 0.594 | 0.7 | 0.448 | 0.266 | 0.88 | 0.861 | 0.919 | 0.629 | 0.595 |
| C=CCn1c(=O)c2cnc(Nc3ccc(N4CCN(C)CC4)cc3)nc2n1-c1cccc(C(C)(C)O)n1 [AZD1775] + C[C@@H]1COCCN1C2=NC(=NC(=C2)C3(CC3)[S@](=N)(=O)C)C4=C5C=CNC5=NC=C4 [AZD6738] (first compound max 1 µM, partner max 10 µM) | 0.681 | 0.944 | 0.772 | 0.973 | 0.937 | 0.749 | 0.98 | 0.536 | 0.721 | 0.875 | 0.948 | 0.71 | 0.803 | 0.849 | 0.706 | 0.966 |  | 0.966 | 0.922 | 0.637 |
| C=CCn1c(=O)c2cnc(Nc3ccc(N4CCN(C)CC4)cc3)nc2n1-c1cccc(C(C)(C)O)n1 [AZD1775] + O=C(c1cc(Cc2n[nH]c(=O)c3ccccc23)ccc1F)N1CCN(C(=O)C2CC2)CC1 [Olaparib] (first compound max 1 µM, partner max 10 µM) | 0.506 | 0.879 | 0.74 | 0.644 | 0.657 | 0.528 | 0.972 | 0.533 | 0.636 | 0.781 | 0.76 | 0.382 | 0.57 | 0.478 | 0.501 | 0.797 |  | 0.705 | 0.85 | 0.619 |
| CCN(CCO)CCCOc1ccc2c(Nc3cc(CC(=O)Nc4cccc(F)c4)[nH]n3)ncnc2c1 [AZD2811] + C=CCn1c(=O)c2cnc(Nc3ccc(N4CCN(C)CC4)cc3)nc2n1-c1cccc(C(C)(C)O)n1 [AZD1775] (first compound max 1 µM, partner max 1 µM) | 0.89 | 0.876 | 0.746 | 0.54 | 0.649 | 0.507 | 0.993 | 0.359 | 0.567 | 0.835 | 0.718 | 0.402 | 0.441 | 0.602 | 0.414 | 0.791 | 0.902 | 0.531 | 0.734 | 0.586 |
| CCN(CCO)CCCOc1ccc2c(Nc3cc(CC(=O)Nc4cccc(F)c4)[nH]n3)ncnc2c1 [AZD2811] + C[C@@H]1COCCN1C2=NC(=NC(=C2)C3(CC3)[S@](=N)(=O)C)C4=C5C=CNC5=NC=C4 [AZD6738] (first compound max 1 µM, 7x7, partner max 10 µM) | 0.567 | 0.751 | 0.515 | 0.852 | 0.885 | 0.635 | 0.825 | 0.46 | 0.299 | 0.83 | 0.797 | 0.49 | 0.674 | 0.726 | 0.306 | 0.797 | 0.833 | 0.824 | 0.446 | 0.595 |
| CN(CCO)CC[C@H](CSc1ccccc1)Nc1ccc(S(=O)(=O)NC(=O)c2ccc(N3CCC([C@@H](O)c4ccccc4-c4ccc(Cl)cc4)CC3)cc2)cc1S(=O)(=O)C(F)(F)F [AZD4320] + C=CCn1c(=O)c2cnc(Nc3ccc(N4CCN(C)CC4)cc3)nc2n1-c1cccc(C(C)(C)O)n1 [AZD1775] (first compound max 1 µM, partner max 1 µM) | 0.7 | 0.862 | 0.989 | 0.897 | 0.856 | 0.485 | 1 | 0.644 | 0.927 | 0.838 |  | 0.548 | 0.53 | 0.858 | 0.446 | 0.908 | 1 | 0.744 | 1 | 0.814 |
| Cc1c2c(nn1C)CSCc1cc(n(C)n1)CSc1cc(c3ccccc3c1)OCCCc1c(C(=O)O)n(C)c3c-2c(Cl)ccc13 [AZD5991] + CN(C)CCCOc1ccc(-c2ccc3ncc4c(c3c2)n(C2CCOCC2)c(=O)n4C)cn1 [AZD0156] (first compound max 1 µM, 7x7, partner max 1 µM) | 0.325 | 0.34 | 0.985 | 0.245 | 0.276 | 0.183 | 1 | 0.442 | 0.21 | 0.496 |  | 0.225 | 0.812 | 0.314 | 0.414 | 0.219 | 0.502 | 0.876 | 1 | 0.27 |
| CCc1c2c(nc3ccc(O)cc13)-c1cc3c(c(=O)n1C2)COC(=O)[C@]3(O)CC [SN-38] + O=C(c1cc(Cc2n[nH]c(=O)c3ccccc23)ccc1F)N1CCN(C(=O)C2CC2)CC1 [Olaparib] (first compound max 0.3 µM, 7x7, partner max 10 µM) | 0.627 | 0.837 | 0.473 | 0.695 | 0.842 | 0.505 | 1 | 0.0947 | 0.767 | 0.717 |  | 0.338 | 0.771 | 0.692 | 0.542 |  | 0.998 | 0.762 | 1 | 0.758 |
| Cn1cnc2c(F)c(Nc3ccc(Br)cc3Cl)c(C(=O)NOCCO)cc21 [Selumetinib] + CC(C)n1c(=O)n(C)c2cnc3cc(F)c(-c4ccc(OCCCN5CCCCC5)nc4)cc3c21 [AZD1390] (first compound max 10 µM, 7x7, partner max 0.3 µM) | 0.379 |  | 0.138 | 0.188 | 0.433 | 0.51 | 0.225 | 0.136 | 0.0318 | 0.425 | 0.108 | 0.403 | 0.846 | 0.122 | 0.702 | 0.132 | 0.368 | 0.353 | 0.265 | 0.499 |
| Cn1cnc2c(F)c(Nc3ccc(Br)cc3Cl)c(C(=O)NOCCO)cc21 [Selumetinib] + CCN(CCO)CCCOc1ccc2c(Nc3cc(CC(=O)Nc4cccc(F)c4)[nH]n3)ncnc2c1 [AZD2811] (first compound max 10 µM, 7x7, partner max 1 µM) | 0.438 |  | 0.151 | 0.328 | 0.486 | 0.599 | 0.609 | 0.152 | 0.247 | 0.445 | 0.134 | 0.444 | 0.858 | 0.548 | 0.793 | 0.246 | 0.557 | 0.456 | 0.385 | 0.485 |
| Cn1cnc2c(F)c(Nc3ccc(Br)cc3Cl)c(C(=O)NOCCO)cc21 [Selumetinib] + C[C@@H]1COCCN1C2=NC(=NC(=C2)C3(CC3)[S@](=N)(=O)C)C4=C5C=CNC5=NC=C4 [AZD6738] (first compound max 10 µM, 7x7, partner max 10 µM) | 0.534 |  | 0.243 | 0.718 | 0.748 | 0.689 | 0.639 | 0.503 | 0.053 | 0.738 | 0.675 | 0.466 | 0.855 | 0.261 | 0.776 | 0.739 | 0.804 | 0.555 | 0.405 | 0.552 |
